Experiment: Stability as a function of pH 2-6 (1 mg/mL, 0.25 mg/mL at pH 6, in ~10 mM citric acid/glycine buffers)
Format: physicochemical
Excerpt: Thus, the inventors believe that the solubility of the drug becomes inadequate for the intended product concentration above about pH 3.6. However, the drug product will be diluted prior to infusion and then intravenously infused slowly, and such a low pH is unlikely to present a safety or patient comfort issue, but stability of the drug in solution could be an issue at such a low pH. The purpose of this experiment was to assess the stability of the drug as a function of pH.
A key consideration in such an experiment is the concentration of drug and buffer used. Use of a buffer is essential since the data is meaningless if the pH shifts dramatically during the experiment. However, it is desirable to keep the buffer at minimal strength to minimize the impact of buffer catalysis. Buffer strength can be minimized by keeping the drug concentration low. Keeping the drug concentration low also minimizes confounding the data with solubility limits (i.e. the drug precipitating out of solution).
Methodology: Buffer solutions containing ˜10 mM each of citric acid and glycine in the pH range 2-6 were prepared by titrating 250 mL of a single stock containing both buffer agents with 1N NaOH/1N HCl and removing 50 mL aliquots at predetermined pH values. Solutions at 1 mg/mL were prepared in buffers of pH 2-5 by dissolving ˜25 mg of Compounds having the active agent (N-(4,6-Bis-n-propylamino-[1,3,5]triazin-2-yl)-O,N-dimethyl-hydroxylamine) H2SO4 in ˜23 mL of a given buffer, adjusting the pH to the target and making up the volume to 25.0 mL in a volumetric flask. The solution at pH 6 was prepared similarly but at a lower drug concentration of 0.25 mg/mL using 6.68 mg of Compounds having the active agent (N-(4,6-Bis-n-propylamino-[1,3,5]triazin-2-yl)-O,N-dimethyl-hydroxylamine) H2SO4.
Each of the buffered solutions were filtered through a 0.2 μm polyether sulfone syringe filter into a volumetric flask, which had been previously rinsed with 70% ethanol and dried in a laminar flow hood. Following filtration, each buffered solution was split into 10 aliquots (9 aliquots of 2.5 mL each and 1 aliquot of 2 mL) in 5 mL serum vials previously rinsed with 70% ethanol and dried in a laminar flow hood. Filtration and preparation of aliquots were performed in a laminar flow hood. The 2 mL aliquot of each buffered solution was submitted for T0 analysis (HPLC assay and related substances). Of the nine 2.5 mL aliquots, three aliquots were stored at each 40° C. and 60° C., two aliquots were stored at 25° C. and one aliquot was stored at −70° C. Samples stored at 40° C. and at 60° C. were evaluated for physical appearance, pH, assay and related substances after 1 week, 2 weeks and 4 weeks of storage. Samples at 25° C. and −70° C. served as controls to be analyzed if necessary.
The pH values for all the samples remained relatively constant for up to 4 weeks at both storage temperatures.

solution stability versus pH (in words) (assay and impurities data, pH 2 compared to pH 3-6): significantly less stable at pH 2 | Impurities (target pH 2, 40° C. 2 wk): 1.48% | Impurities (target pH 2, 40° C. 4 wk): 2.49% | Impurities (target pH 2, 60° C. 1 wk): 3.83% | Impurities (target pH 2, 60° C. 2 wk): 9.89% | Impurities (target pH 2, 60° C. 4 wk): 14.34% | Impurities (target pH 3, 40° C. 2 wk): 0.19% | Impurities (target pH 3, 40° C. 4 wk): 0.41% | Impurities (target pH 3, 60° C. 1 wk): 0.71% | Impurities (target pH 3, 60° C. 4 wk): 2.19% | Impurities (target pH 4, 40° C. 2 wk): 0.17% | Impurities (target pH 4, 40° C. 4 wk): 0.22% | Impurities (target pH 4, 60° C. 2 wk): 0.52% | Impurities (target pH 4, 60° C. 4 wk): 1.02% | Impurities (target pH 5, 60° C. 2 wk): 0.62% | Impurities (target pH 5, 60° C. 4 wk): 1.10% | Impurities (target pH 6, 40° C. 2 wk): 0.25% | Impurities (target pH 6, 40° C. 4 wk): 0.28% | Impurities (target pH 6, 60° C. 4 wk): 1.65%
Structure (SMILES): CCCNc1nc(NCCC)nc(N(C)OC)n1 [active agent, N-(4,6-Bis-n-propylamino-[1,3,5]triazin-2-yl)-O,N-dimethyl-hydroxylamine]
